Laboratory results taken from US10052330B2, “Substituted pyrido[3,4-b]pyrazines as Syk inhibitors” (HUTCHISON MEDIPHARMA LIMITED, priority 2011, dated 2018).

Tests used:
Syk kinase = Syk kinase (Homo sapiens, UniProt P43405); assay: Syk kinase enzymatic assay (Kit-Tyr 2 Peptide); assay type: biochemical; conditions: 8 concentrations, 1 μM down to 0.0003 μM; upper bound of each range is 'less than'; read-out: IC50: Enzymatic Activity (Syk kinase)
RBL-2H3 cells = assay: IgE-induced Beta-hexosaminidase secretion in RBL-2H3 cells; assay type: cell-based; conditions: Rattus norvegicus, RBL-2H3, RBL-2H3 cells sensitized with SPE-7, stimulated with DNP-BSA; upper bound of each range is 'less than'; read-out: IC50, IgE-induced Beta-hexosaminidase secretion

Structure (SMILES) | IC50 (Syk kinase) | IC50 (RBL-2H3 cells)
Fc1cc(-c2cc3nccnc3c(NC[C@@H]3CCCNC3)n2)ccc1N1CCOCC1 [Compound 121] | 1 to 100 nM | 100 to 1000 nM
CN1CCN(c2ccc(-c3cc4nccnc4c(NC[C@@H]4CCCNC4)n3)cc2)CC1 [Compound 122] | 1 to 100 nM | 100 to 1000 nM
CN1CCN(c2ccc(-c3cc4nccnc4c(NC[C@@H]4CNCCO4)n3)cc2)CC1 [Compound 123] | 1 to 100 nM | 1 to 100 nM
O=C1CCCN1c1ccc(-c2cc3nccnc3c(NC[C@@H]3CNCCO3)n2)cc1 [Compound 124] | 100 to 1000 nM | 100 to 1000 nM
CN1CCN(c2ccc(-c3cc4nccnc4c(N4CC[C@@H](CO)C4)n3)cc2)CC1 [Compound 127] | 1 to 100 nM | 100 to 1000 nM
CN1CCN(c2ccc(-c3cc4nccnc4c(N4CCC(C(N)=O)C4)n3)cc2)CC1 (stereo not drawn) [Compound 128] | 1 to 100 nM | 100 to 1000 nM
Fc1cc(-c2cc3nccnc3c(NC[C@H]3CCCNC3)n2)ccc1N1CCOCC1 [Compound 129] | 1 to 100 nM | 1 to 100 nM
c1cnc2c(N3CCC4(CCCNC4)C3)nc(-c3ccc(N4CCOCC4)nc3)cc2n1 (stereo not drawn) [Compound 130] | 1 to 100 nM | 1 to 100 nM
Fc1cc(-c2cc3nccnc3c(NC[C@@H]3CNCCO3)n2)cc(F)c1N1CCOCC1 [Compound 135] | 100 to 1000 nM | 100 to 1000 nM
COc1ccc(-c2cc3nccnc3c(NC[C@@H]3CNCCO3)n2)cc1F [Compound 136] | 1 to 100 nM | 1 to 100 nM
FC(F)Oc1ccc(-c2cc3nccnc3c(NC[C@@H]3CNCCO3)n2)cc1 [Compound 138] | 100 to 1000 nM | 100 to 1000 nM
FC(F)Oc1ccc(-c2cc3nccnc3c(NC[C@H]3CCCNC3)n2)cc1 [Compound 139] | 1 to 100 nM | 1 to 100 nM
CN(C)c1ccc(-c2cc3nccnc3c(NC[C@@H]3CNCCO3)n2)cc1F [Compound 141] | 1 to 100 nM | 1 to 100 nM
CN(C)c1ccc(-c2cc3nccnc3c(NC[C@H]3CCCNC3)n2)cc1F [Compound 142] | 1 to 100 nM | 1 to 100 nM
CNc1ccc(-c2cc3nccnc3c(NC[C@@H]3CNCCO3)n2)cc1 [Compound 143] | 1 to 100 nM | 1 to 100 nM
NC(=O)N[C@@H]1CCN(c2nc(-c3ccc(N4CCOCC4)cc3)cc3nccnc23)C1 [Compound 144] | 100 to 1000 nM | 100 to 1000 nM
CCNC[C@@H]1CCN(c2nc(-c3ccc(N4CCOCC4)cc3)cc3nccnc23)C1 [Compound 148] | 100 to 1000 nM | 100 to 1000 nM

Structure (SMILES) | IC50 (Syk kinase) | IC50 (RBL-2H3 cells)
CS(=O)(=O)NC[C@@H]1CCN(c2nc(-c3ccc(N4CCOCC4)cc3)cc3nccnc23)C1 [Compound 149, (R)—N-((1-(7-(4-morpholinophenyl)pyrido[4,3-b]pyrazin-5-yl)pyrrolidin-3-yl)methyl)methanesulfonamide] | 100 to 1000 nM | 100 to 1000 nM
NC(=O)NC[C@@H]1CCN(c2nc(-c3ccc(N4CCOCC4)cc3)cc3nccnc23)C1 [Compound 150, (S)-1-((1-(7-(4-morpholinophenyl)pyrido[4,3-b]pyrazin-5-yl)pyrrolidin-3-yl)methyl)urea] | 100 to 1000 nM | 100 to 1000 nM
NC(=O)NC[C@H]1CCN(c2nc(-c3ccc(N4CCOCC4)cc3)cc3nccnc23)C1 [Compound 151] | 100 to 1000 nM | 100 to 1000 nM
FC1=CC(CNc2nc(-c3ccc(N4CCOCC4)cc3)cc3nccnc23)CNC1 (stereo not drawn) [Compound 157] | 1 to 100 nM | 1 to 100 nM
c1cnc2c(NCc3cc[nH]n3)nc(-c3ccc(N4CCOCC4)cc3)cc2n1 [Compound 162] | 100 to 1000 nM | 100 to 1000 nM
CN(C)c1ccc(-c2cc3nccnc3c(N3CC[C@H](CO)C3)n2)cc1 [Compound 164] | 100 to 1000 nM | 100 to 1000 nM
CN(C)c1ccc(-c2cc3nccnc3c(N3CC[C@@H](CO)C3)n2)cc1 [Compound 165] | 100 to 1000 nM | 1 to 100 nM
CN(C)c1ccc(-c2cc3nccnc3c(NCCS(N)(=O)=O)n2)cc1 [Compound 166] | 100 to 1000 nM | 100 to 1000 nM
NS(=O)(=O)CCNc1nc(-c2ccc(N3CCOCC3)cc2)cc2nccnc12 [Compound 167] | 100 to 1000 nM | 100 to 1000 nM
O=C1CCC(CNc2nc(-c3ccc(N4CCOCC4)cc3)cc3nccnc23)CN1 (stereo not drawn) [Compound 168] | 100 to 1000 nM | 100 to 1000 nM
c1cnc2c(NCCc3c[nH]cn3)nc(-c3ccc(N4CCOCC4)cc3)cc2n1 [Compound 172] | 100 to 1000 nM | 100 to 1000 nM
CC(O)[C@H]1CCN(c2nc(-c3ccc(N4CCOCC4)cc3)cc3nccnc23)C1 (stereo partly drawn) [Compound 174, (S)-1-(1-(7-(4-morpholinophenyl)pyrido[4,3-b]pyrazin-5-yl)pyrrolidin-3-yl)ethanol] | 100 to 1000 nM | 100 to 1000 nM
CN(C)c1ccc(-c2cc3nccnc3c(NCCC(N)=O)n2)cc1 [Compound 175, 3-(7-(4-(dimethylamino)phenyl)pyrido[4,3-b]pyrazin-5-ylamino)propanamide] | 100 to 1000 nM | 100 to 1000 nM
COc1ccc(-c2cc3nccnc3c(NCCC(N)=O)n2)cc1F [Compound 176] | 100 to 1000 nM | 100 to 1000 nM
NC(=O)CCNc1nc(-c2ccc(N3CCCC3)cc2)cc2nccnc12 [Compound 177] | 100 to 1000 nM | 1 to 100 nM
NC(=O)C1CCN(c2nc(-c3ccc(N4CCOCC4)cc3)cc3nccnc23)C1 (stereo not drawn) [Compound 179] | 1 to 100 nM | 100 to 1000 nM
